{"source": "patent US20050042283A1", "about": "“Histamine and CCK2/gastrin receptor blockade in the treatment of acid-peptic disease and cancer” (UNIVERSITY OF MASSACHUSETTS, priority 2003, published 2005)", "key": {"[1]": {"test_system": "COOH-terminally amidated gastrin", "test": "Gastrin radioimmunoassay (serum amidated gastrin)", "assay_type": "in vivo, mice", "conditions": "6 months treatment", "experimental": "Plasma gastrin levels (COOH-terminally amidated gastrin) were determined by radioimmunoassay using rabbit antiserum L2 that reacts similarly with G17 and […]. Real-time PCR Assay of Helicobacter felis infection in mouse stomachs and RT-PCR assay of growth factors and cytokine expression profiles H.felis DNA present in infected mouse stomachs was quantified using a modification of a previously described realtime PCR assay that accurately quantified H. pylori (Ge, Z. et al., 2001). Two primers (forward: 5′-[…] -3′ (SEQ ID NO:1); reverse: 5′-[…]-3′(SEQ ID NO:2) were designed to hybridize within the conserved region of the single copy H. felis flaB gene locus. No products were amplified from DNA isolated from H. pylori, H. mustelae, or H. bizzozeroni, confirming the specificity of these oligonucleotides for H. felis. DNA from plate-grown H. felis and from mouse gastric corpus was prepared using a high pure PCR kit (Roche Molecular Biochemicals, Indianapolis, IN). Real-time PCR was performed using SmartCycler (Cepheid, Calif.) and Quantitect SYBR Green PCR kit (QIAGEN Inc., Valencia, Calif.) following the manufacturer's instructions. Briefly, the PCR assay was performed under the following conditions: 95° C. for 15 minutes followed by 45 cycles of 95° C. for 15 seconds, 55° C. for 30 seconds and 72° C. for 30 seconds. […]"}, "IL-4": {"test_system": "IL-4", "test": "Real-time RT-PCR of cytokine expression: IL-4", "assay_type": "in vivo", "conditions": "6 months; versus untreated mice; listed as loxtidine alone", "experimental": "Real-time RT-PCR assay of growth factors and cytokine expression profiles Total RNAs were extracted from a sample of whole stomach from each animal with Trizol (Invitrogen, Calif.) and five micrograms of total RNA were used for first strand cDNA synthesis using Superscript II cDNA amplification System (Invitrogen, Calif.) following manufacturer's instructions. Real-time PCR was performed as above using RT-PCR primers for each gene as listed below. All primers were designed using Lasergene ver5.0 software (DNASTAR inc., Madison, Wis.). Results were calculated by minus delta delta threshold cycle (-ΔΔCt) method (Livak, K. J. et al., 2001). Briefly, the threshold cycle Ct1 of each sample reaction was deducted from the threshold cycle Ct2 of GAPDH reaction for normalization, and then deducted from the threshold cycle Ct3 of calibration control (45 cycles in this experiment), i.e., the final result was represented by the formula; Ct3-(Ct1-Ct2). […]"}, "[2]": {"test_system": "enterochromaffin-like (ECL) cell", "test": "Gastric histology of loxtidine-treated South African rat", "assay_type": "in vivo, Mastomys (African multimammate rat)", "conditions": "treated for 16 weeks", "source_text": "FIG. 2: Characteristics of loxtidine."}, "ECL cell": {"test_system": "ECL cell", "conditions": "cited from earlier work"}, "[3]": {"test_system": "H. felis-infected INS-GAS mice", "test": "Maximal gastric acid output by pyloric ligation", "assay_type": "in vivo", "conditions": "3 months treatment; for Reduction of gastric acid output: acid secretion over 4 hours", "experimental": "Mice in group III were treated orally with the histamine H2 receptor antagonist loxtidine (in drinking water) at a dose of 0.5 g/L, while group IV mice received both drugs. For the 3 months drug study of inhibitory effects on maximal acid secretion, gastric atrophy, hyperplasia and dysplasia, 8 mice were prepared for each group. For the 6 months drug study of inhibitory effects on gastric carcinogenesis, 17 mice were prepared for each group.\nThe pyloric ligation method was used to measure maximal acid secretion as previously described (Chen, D. et al., 2004). Briefly, mice were fasted overnight and anesthetized by isoflurane inhalation. The abdomen was incised by midline celiotomy, the pylorus ligated firmly, and the abdomen closed with surgical sutures. After 4 hours, the mice were euthanized and gastric juice collected. The acidity of gastric juice was measured with a pH meter (AR 25; Fisher Scientific, Houston, Tex.) by 0.01 N NaOH titration and results expressed as μEq."}}, "note": "Entries after “also recorded” stand apart in the source; their conditions may differ."}
{"substance": "1-methyl-5-((3-(3-(1-piperidinylmethyl)phenoxy)propyl)amino)-1H-1,2,4-triazole-3-ethanol [Loxtidine]", "values": [{"measurement": "Serum amidated gastrin levels compared with untreated mice", "setting": "[1]", "value": "no significant, but in a higher tendency"}, {"measurement": "Serum amidated gastrin levels compared with untreated mice", "setting": "[1]; listed as loxtidine alone", "value": "tendency toward higher gastrins that was not significant"}, {"measurement": "IL-4 expression level", "setting": "IL-4", "value": "large and significant increase; also recorded: significantly higher level"}, {"measurement": "Gastric histology finding", "setting": "[2]", "value": "enterochromaffin-like (ECL) cell neoplasia"}, {"measurement": "Tumor induction in rats", "setting": "ECL cell; rat, in vivo", "value": "induction of ECLomas"}, {"measurement": "Duration of administration after which ECL cell hyperplasia was seen", "setting": "ECL cell; rats, Poynter et al.", "value": 39, "unit": "days"}, {"measurement": "Maximal gastric acid output (MAO), effect in words", "setting": "[3]", "value": "significantly inhibited"}, {"measurement": "Reduction of gastric acid output", "setting": "[3]", "value": 80, "unit": "%"}, {"measurement": "Reduction of gastric acid output", "setting": "[3]; listed as loxtidine", "value": 83, "unit": "%"}]}
